According to patent US7741485B2, “Benzenesulphonamide derivatives as herbicides or desiccant/defoliant compounds” (BASF Aktiengesellschaft, priority 2003, dated 2010):
Each block holds one molecule with its values, some of them ahead of it.

Assays:
Bengal commelina = assay: greenhouse herbicidal test, post-emergence treatment; format: in vivo; settings: application rates of 15.63 g/ha
From the text: (§1) The seeds of the test plants were sown separately for each species. For the post-emergence treatment, the test plants were first grown to a height of 3 to 15 cm, depending on the plant form, and only then treated with the active compounds, emulsified or suspended in water. The test plants were for this purpose either sown directly and grown in the same containers, or they were first grown separately as seedlings and transplanted into the test containers a few days prior to treatment. The application rate for the pre- and post-emergence treatment was from 62.5 to 3.1 g of a.s./ha. Depending on the species, the plants were kept at 10-25° C. or 20-35° C. The test period extended over 2 to 4 weeks. During this time, the plants were tended, and their response to the individual treatments was evaluated. Evaluation was carried out using a scale from 0 to 100. 100 means no emergence of the plants, or complete destruction of at least the above-ground parts, and 0 means no damage, or normal course of growth. The plants used in the greenhouse experiments were composed of the following species: [table]

common lambsquarters [1] = assay: as above; format: in vivo
From the text: as §1

velvet leaf [2] = assay: as above; format: in vivo; settings: application rates of 15.63 g/ha
From the text: as §1

pigweed [3] = assay: as above; format: in vivo
From the text: as §1

common morning glory [4] = assay: as above; format: in vivo
From the text: as §1

pigweed [5] = assay: greenhouse herbicidal test, pre-emergence treatment; format: in vivo; settings: for pre-emergence activity against pigweed: application rates of 12.5 and 6.2 g/ha; for control of pigweed, pre-emergence method: application rates of 6.2 and 3.1 g/ha
From the text: (§2) The seeds of the test plants were sown separately for each species. For the pre-emergence treatment, the active compounds, emulsified or suspended in water, were applied directly after sowing by means of finely distributing nozzles. The containers were irrigated gently to promote germination and growth and subsequently covered with transparent plastic hoods until the plants had rooted. This cover caused uniform germination of the test plants, unless this was adversely affected by the active compounds. The application rate for the pre- and post-emergence treatment was from 62.5 to 3.1 g of a.s./ha. Depending on the species, the plants were kept at 10-25° C. or 20-35° C. The test period extended over 2 to 4 weeks. During this time, the plants were tended, and their response to the individual treatments was evaluated. Evaluation was carried out using a scale from 0 to 100. 100 means no emergence of the plants, or complete destruction of at least the above-ground parts, and 0 means no damage, or normal course of growth. The plants used in the greenhouse experiments were composed of the following species: [table]

common lambsquarters [6] = assay: as above; format: in vivo; settings: for pre-emergence activity against common lambsquarters: application rates of 12.5 and 6.2 g/ha; for control of common lambsquarters, pre-emergence method: application rates of 6.2 and 3.1 g/ha
From the text: as §2

common morning glory [7] = assay: as above; format: in vivo; settings: for pre-emergence activity against common morning glory: application rates of 12.5 and 6.2 g/ha; for control of morning glory, pre-emergence method: application rates of 6.2 and 3.1 g/ha
From the text: as §2

wild buckwheat = assay: as above; format: in vivo; settings: application rates of 12.5 and 6.2 g/ha
From the text: as §2

ladysthumb = assay: greenhouse herbicidal test, post-emergence treatment; format: in vivo; settings: for post-emergence activity against ladysthumb: application rates of 15.6 and 7.8 g/ha; for post-emergence activity against ladiesthumb: application rates of 15.63 g/ha
From the text: as §1

velvet leaf [8] = assay: greenhouse herbicidal test, pre-emergence treatment; format: in vivo; settings: for control of velvet leaf, pre-emergence method: application rates of 6.2 and 3.1 g/ha
From the text: as §2

common nightshade = assay: as above; format: in vivo; settings: application rates of 62.5 and 31.2 g/ha
From the text: as §2

cleavers harrif = assay: greenhouse herbicidal test, post-emergence treatment; format: in vivo; settings: application rates of 15.63 g/ha
From the text: as §1

[9] = application rates of 15.63 g/ha
[10] = application rates of 15.6 and 7.8 g/ha
[11] = application rates of 62.5 and 31.2 g/ha

SMILES: CNC(=O)NS(=O)(=O)c1cc(-n2c(=O)cc(C(F)(F)F)n(C)c2=O)c(F)cc1Cl [Compound 2.17]
post-emergence activity against Bengal commelina (Bengal commelina): very good
post-emergence activity against common lambsquarters (common lambsquarters [1]; [9]): very good
post-emergence activity against velvet leaf (velvet leaf [2]): very good

SMILES: CC(C)N(C(=O)NS(=O)(=O)c1cc(-n2c(=O)cc(C(F)(F)F)n(C)c2=O)c(F)cc1Cl)C(C)C [Compound 2.27]
post-emergence activity against pigweed (pigweed [3]; [9]): very good
post-emergence activity against common morning glory (common morning glory [4]; [9]): very good

SMILES: C#CC(C)N(C)C(=O)NS(=O)(=O)c1cc(-n2c(=O)cc(C(F)(F)F)n(C)c2=O)c(F)cc1Cl (stereo not drawn) [Compound 2.28]
post-emergence activity against pigweed (pigweed [3]; [9]): very good
post-emergence activity against common lambsquarters (common lambsquarters [1]; [9]): very good
post-emergence activity against common morning glory (common morning glory [4]; [9]): very good

SMILES: Cn1c(C(F)(F)F)cc(=O)n(-c2cc(S(=O)(=O)NC(=O)Nc3ccccc3)c(Cl)cc2F)c1=O [Compound 2.29]
post-emergence activity against pigweed (pigweed [3]; [10]): very good
post-emergence activity against common lambsquarters (common lambsquarters [1]; [10]): very good
post-emergence activity against common morning glory (common morning glory [4]; [10]): very good

SMILES: COC(=O)NS(=O)(=O)c1cc(-n2c(=O)cc(C(F)(F)F)n(C)c2=O)ccc1Cl [Compound 3.1]
pre-emergence activity against pigweed (pigweed [5]): very good
pre-emergence activity against common lambsquarters (common lambsquarters [6]): very good
pre-emergence activity against common morning glory (common morning glory [7]): very good
pre-emergence activity against wild buckwheat (wild buckwheat): very good

SMILES: COC(=O)NS(=O)(=O)c1cc(-n2c(=O)cc(C(F)(F)F)n(C)c2=O)c(F)cc1Cl [Compound 3.18]
pre-emergence activity against pigweed (pigweed [5]): very good
pre-emergence activity against common lambsquarters (common lambsquarters [6]): very good
pre-emergence activity against common morning glory (common morning glory [7]): very good
pre-emergence activity against wild buckwheat (wild buckwheat): very good

SMILES: CCOC(=O)NS(=O)(=O)c1cc(-n2c(=O)cc(C(F)(F)F)n(C)c2=O)c(F)cc1Cl [Compound 3.19]
post-emergence activity against pigweed (pigweed [3]; [10]): very good
post-emergence activity against common lambsquarters (common lambsquarters [1]; [10]): very good
post-emergence activity against common morning glory (common morning glory [4]; [10]): very good
post-emergence activity against ladysthumb (ladysthumb): very good

SMILES: CCCOC(=O)NS(=O)(=O)c1cc(-n2c(=O)cc(C(F)(F)F)n(C)c2=O)c(F)cc1Cl [Compound 3.20]
post-emergence activity against pigweed (pigweed [3]; [10]): very good
post-emergence activity against common lambsquarters (common lambsquarters [1]; [10]): very good
post-emergence activity against common morning glory (common morning glory [4]; [10]): very good
post-emergence activity against ladysthumb (ladysthumb): very good

SMILES: CCCCOC(=O)NS(=O)(=O)c1cc(-n2c(=O)cc(C(F)(F)F)n(C)c2=O)c(F)cc1Cl [Compound 3.22]
post-emergence activity against pigweed (pigweed [3]; [10]): very good
post-emergence activity against common lambsquarters (common lambsquarters [1]; [10]): very good
post-emergence activity against common morning glory (common morning glory [4]; [10]): very good
post-emergence activity against ladysthumb (ladysthumb): very good

SMILES: CC(C)COC(=O)NS(=O)(=O)c1cc(-n2c(=O)cc(C(F)(F)F)n(C)c2=O)c(F)cc1Cl [Compound 3.24]
control of pigweed, pre-emergence method (pigweed [5]): very good
control of common lambsquarters, pre-emergence method (common lambsquarters [6]): very good
control of morning glory, pre-emergence method (common morning glory [7]): very good
control of velvet leaf, pre-emergence method (velvet leaf [8]): very good

SMILES: CCCCCOC(=O)NS(=O)(=O)c1cc(-n2c(=O)cc(C(F)(F)F)n(C)c2=O)c(F)cc1Cl [Compound 3.26]
post-emergence activity against pigweed (pigweed [3]; [10]): very good
post-emergence activity against common lambsquarters (common lambsquarters [1]; [10]): very good
post-emergence activity against common morning glory (common morning glory [4]; [10]): very good

SMILES: Cn1c(C(F)(F)F)cc(=O)n(-c2cc(S(=O)(=O)NC(=O)OC3CCCC3)c(Cl)cc2F)c1=O [Compound 3.27]
post-emergence activity against pigweed (pigweed [3]; [10]): very good
post-emergence activity against common lambsquarters (common lambsquarters [1]; [10]): very good
post-emergence activity against common morning glory (common morning glory [4]; [10]): very good
post-emergence activity against ladysthumb (ladysthumb): very good

SMILES: Cn1c(C(F)(F)F)cc(=O)n(-c2cc(S(=O)(=O)NC(=O)OCc3ccccc3)c(Cl)cc2F)c1=O [Compound 3.32, Benzyl{2-chloro-4-fluoro-5-[3,6-dihydro-3-methyl-2,6-dioxo-4-trifluoromethyl-(2H)-pyrimidin-1-yl]phenyl}sulfonylcarbamate]
effectiveness against pigweed, pre-emergence method (pigweed [5]; [11]): very good
effectiveness against common lambsquarters, pre-emergence method (common lambsquarters [6]; [11]): very good
effectiveness against common nightshade, pre-emergence method (common nightshade): very good
effectiveness against velvet leaf, pre-emergence method (velvet leaf [8]; [11]): very good

SMILES: COC(=O)COC(=O)NS(=O)(=O)c1cc(-n2c(=O)cc(C(F)(F)F)n(C)c2=O)c(F)cc1Cl [Compound 3.41]
post-emergence activity against pigweed (pigweed [3]; [9]): very good
post-emergence activity against ladiesthumb (ladysthumb): very good
post-emergence activity against cleavers harrif (cleavers harrif): very good

SMILES: COCC(C)(C)OC(=O)NS(=O)(=O)c1cc(-n2c(=O)cc(C(F)(F)F)n(C)c2=O)c(F)cc1Cl [Compound 3.42]
post-emergence activity against common morning glory (common morning glory [4]; [9]): very good
post-emergence activity against ladiesthumb (ladysthumb): very good
post-emergence activity against velvet leaf (velvet leaf [2]): very good

melting point: 114 to 116 °C
SMILES: CC(C)C(=O)NS(=O)(=O)c1cc(-n2c(=O)cc(C(F)(F)F)n(C)c2=O)ccc1Cl [Compound 4.5, N-isobutynyl-[2-chloro-5-(3,6-dihydro-3-methyl-2,6-dioxo-4-trifluoromethyl-1-(2H)-pyrimidinyl)]benzenesulfonamide]

SMILES: CCC(=O)NS(=O)(=O)c1cc(-n2c(=O)cc(C(F)(F)F)n(C)c2=O)c(F)cc1Cl [Compound 4.14]
post-emergence activity against pigweed (pigweed [3]; [9]): very good
post-emergence activity against ladiesthumb (ladysthumb): very good
post-emergence activity against cleavers harrif (cleavers harrif): very good

SMILES: CC(C)C(=O)NS(=O)(=O)c1cc(-n2c(=O)cc(C(F)(F)F)n(C)c2=O)c(F)cc1Cl [Compound 4.16]
control of pigweed, pre-emergence method (pigweed [5]): very good
control of common lambsquarters, pre-emergence method (common lambsquarters [6]): very good
control of morning glory, pre-emergence method (common morning glory [7]): very good
control of velvet leaf, pre-emergence method (velvet leaf [8]): very good
